The values that follow come from ChEMBL document CHEMBL5696441 (Nat Chem Biol, 2011).

Test [1] addresses Dual specificity testis-specific protein kinase 1 (Homo sapiens) (UniProt Q15569). The experiment in a line: Inhibition of TESK1 (unknown origin) assessed as remaining activity at 1 uM by Kinome scan method relative to control.
For test [2], the target named is Cyclin-dependent kinase 11B (Homo sapiens) (UniProt P21127). The experiment in a line: Inhibition of CDC2L1 (unknown origin) assessed as remaining activity at 1 uM by Kinome scan method relative to control.
The target of test [3] is 3-phosphoinositide-dependent protein kinase 1 (Homo sapiens) (UniProt O15530). Kind of test: Inhibition of PDPK1 (unknown origin) assessed as remaining activity at 1 uM by Kinome scan method relative to control.
The target in test [4] is Mitogen-activated protein kinase kinase kinase kinase 1 (Homo sapiens) (UniProt Q92918). The experiment in a line: Inhibition of HPK1 (unknown origin) assessed as remaining activity at 1 uM by Kinome scan method relative to control.
The target in test [5] is Cyclin-dependent kinase 17 (Homo sapiens) (UniProt Q00537). The experiment in a line: Inhibition of PCTK2 (unknown origin) assessed as remaining activity at 1 uM by Kinome scan method relative to control.
Test [6] deals with NT-3 growth factor receptor (Homo sapiens) (UniProt Q16288). Kind of test: Inhibition of TRKC (unknown origin) assessed as remaining activity at 1 uM by Kinome scan method relative to control.
Test [7] has as its target T1, Serine/threonine-protein kinase Nek1 (Homo sapiens) (UniProt Q96PY6).
T1 sequence (whole entry): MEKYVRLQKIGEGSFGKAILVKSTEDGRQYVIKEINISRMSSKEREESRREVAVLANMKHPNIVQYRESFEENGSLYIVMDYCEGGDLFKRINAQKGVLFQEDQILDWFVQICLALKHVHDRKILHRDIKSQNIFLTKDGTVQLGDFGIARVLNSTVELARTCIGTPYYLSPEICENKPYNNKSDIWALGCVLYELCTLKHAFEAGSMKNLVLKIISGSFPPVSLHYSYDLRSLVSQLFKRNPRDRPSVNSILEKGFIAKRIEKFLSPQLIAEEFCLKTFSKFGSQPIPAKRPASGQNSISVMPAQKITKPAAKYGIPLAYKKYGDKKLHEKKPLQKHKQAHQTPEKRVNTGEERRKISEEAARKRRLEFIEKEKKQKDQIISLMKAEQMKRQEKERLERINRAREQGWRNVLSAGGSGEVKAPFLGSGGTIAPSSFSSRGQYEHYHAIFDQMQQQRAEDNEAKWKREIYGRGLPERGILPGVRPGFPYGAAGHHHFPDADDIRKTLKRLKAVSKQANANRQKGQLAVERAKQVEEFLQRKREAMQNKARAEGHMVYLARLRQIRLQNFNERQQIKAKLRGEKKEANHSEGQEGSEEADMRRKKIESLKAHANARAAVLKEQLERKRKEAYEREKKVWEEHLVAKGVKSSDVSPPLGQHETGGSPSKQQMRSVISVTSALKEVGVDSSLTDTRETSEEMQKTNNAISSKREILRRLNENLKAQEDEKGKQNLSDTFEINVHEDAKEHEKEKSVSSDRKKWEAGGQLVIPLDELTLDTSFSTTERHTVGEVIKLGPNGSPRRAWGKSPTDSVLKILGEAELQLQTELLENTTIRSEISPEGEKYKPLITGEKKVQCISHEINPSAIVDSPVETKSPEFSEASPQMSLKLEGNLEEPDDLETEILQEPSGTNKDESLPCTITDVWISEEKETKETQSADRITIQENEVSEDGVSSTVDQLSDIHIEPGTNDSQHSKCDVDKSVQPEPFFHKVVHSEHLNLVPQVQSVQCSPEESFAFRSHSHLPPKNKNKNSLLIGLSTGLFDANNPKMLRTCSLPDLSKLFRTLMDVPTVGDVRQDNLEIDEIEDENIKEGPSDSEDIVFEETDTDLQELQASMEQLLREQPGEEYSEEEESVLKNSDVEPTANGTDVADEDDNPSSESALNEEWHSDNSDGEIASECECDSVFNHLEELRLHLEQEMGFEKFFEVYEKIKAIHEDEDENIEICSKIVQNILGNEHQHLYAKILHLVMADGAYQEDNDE
Kind of test: Inhibition of NEK1 (unknown origin) assessed as remaining activity at 1 uM by Kinome scan method relative to control.

In test [8] the target is T2, TGF-beta receptor type-1 (Homo sapiens) (UniProt P36897).
T2 sequence (whole entry): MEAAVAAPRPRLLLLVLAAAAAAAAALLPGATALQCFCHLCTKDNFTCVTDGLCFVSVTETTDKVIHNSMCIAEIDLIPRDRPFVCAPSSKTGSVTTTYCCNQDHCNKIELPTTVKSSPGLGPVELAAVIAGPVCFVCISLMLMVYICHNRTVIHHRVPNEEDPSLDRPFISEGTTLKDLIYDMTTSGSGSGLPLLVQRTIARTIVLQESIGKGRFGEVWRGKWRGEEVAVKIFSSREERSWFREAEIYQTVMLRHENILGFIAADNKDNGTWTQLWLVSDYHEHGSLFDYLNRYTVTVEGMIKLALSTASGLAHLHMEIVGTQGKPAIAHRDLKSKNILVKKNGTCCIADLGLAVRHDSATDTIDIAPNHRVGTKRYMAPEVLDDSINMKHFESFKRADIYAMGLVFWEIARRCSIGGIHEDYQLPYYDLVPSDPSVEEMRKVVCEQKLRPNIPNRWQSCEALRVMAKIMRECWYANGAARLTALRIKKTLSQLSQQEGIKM
The experiment in a line: Inhibition of TGFBR1 (unknown origin) assessed as remaining activity at 1 uM by Kinome scan method relative to control.

In test [9] the target is Interleukin-1 receptor-associated kinase 3 (Homo sapiens) (UniProt Q9Y616). Kind of test: Inhibition of IRAK3 (unknown origin) assessed as remaining activity at 1 uM by Kinome scan method relative to control.
Interleukin-1 receptor-associated kinase 3 (Homo sapiens), sequence (Q9Y616 whole entry): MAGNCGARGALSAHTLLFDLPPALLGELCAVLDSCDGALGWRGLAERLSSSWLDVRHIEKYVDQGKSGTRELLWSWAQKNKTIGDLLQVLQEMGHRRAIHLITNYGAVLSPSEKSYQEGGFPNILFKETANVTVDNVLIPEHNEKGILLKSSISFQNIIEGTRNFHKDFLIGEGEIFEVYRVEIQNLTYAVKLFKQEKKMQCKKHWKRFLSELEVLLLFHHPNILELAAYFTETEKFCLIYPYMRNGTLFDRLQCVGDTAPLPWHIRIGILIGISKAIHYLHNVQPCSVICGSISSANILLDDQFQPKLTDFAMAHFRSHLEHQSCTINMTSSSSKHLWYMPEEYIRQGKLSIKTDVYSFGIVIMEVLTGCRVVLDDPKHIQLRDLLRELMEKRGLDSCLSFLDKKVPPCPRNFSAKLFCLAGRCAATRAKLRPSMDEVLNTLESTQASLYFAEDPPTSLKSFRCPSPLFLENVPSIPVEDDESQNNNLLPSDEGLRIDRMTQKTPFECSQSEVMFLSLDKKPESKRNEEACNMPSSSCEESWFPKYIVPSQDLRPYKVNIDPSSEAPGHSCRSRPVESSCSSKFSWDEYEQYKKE

NT-3 growth factor receptor (Homo sapiens), sequence (Q16288 32-839 limits assumed): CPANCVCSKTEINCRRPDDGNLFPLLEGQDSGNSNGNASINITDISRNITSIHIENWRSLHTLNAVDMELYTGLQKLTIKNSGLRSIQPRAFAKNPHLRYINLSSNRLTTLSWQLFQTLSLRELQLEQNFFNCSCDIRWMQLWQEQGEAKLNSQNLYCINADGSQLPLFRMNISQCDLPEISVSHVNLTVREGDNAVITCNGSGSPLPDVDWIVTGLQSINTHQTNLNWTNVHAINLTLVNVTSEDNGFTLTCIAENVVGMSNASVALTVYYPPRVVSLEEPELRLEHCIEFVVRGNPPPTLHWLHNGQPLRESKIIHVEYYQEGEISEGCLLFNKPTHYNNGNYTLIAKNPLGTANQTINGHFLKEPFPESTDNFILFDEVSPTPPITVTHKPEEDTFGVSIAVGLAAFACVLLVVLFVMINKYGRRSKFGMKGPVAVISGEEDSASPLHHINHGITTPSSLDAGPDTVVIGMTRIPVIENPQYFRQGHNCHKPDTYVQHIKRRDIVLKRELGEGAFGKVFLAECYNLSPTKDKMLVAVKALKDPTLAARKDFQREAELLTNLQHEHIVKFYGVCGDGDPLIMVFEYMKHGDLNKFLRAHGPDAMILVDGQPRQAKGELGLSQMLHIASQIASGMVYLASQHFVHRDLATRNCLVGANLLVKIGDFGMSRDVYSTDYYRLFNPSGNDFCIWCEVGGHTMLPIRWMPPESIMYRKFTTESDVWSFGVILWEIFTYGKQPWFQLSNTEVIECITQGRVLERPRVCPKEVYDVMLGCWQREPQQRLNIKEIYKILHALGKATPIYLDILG
3-phosphoinositide-dependent protein kinase 1 (Homo sapiens), sequence (O15530 whole entry): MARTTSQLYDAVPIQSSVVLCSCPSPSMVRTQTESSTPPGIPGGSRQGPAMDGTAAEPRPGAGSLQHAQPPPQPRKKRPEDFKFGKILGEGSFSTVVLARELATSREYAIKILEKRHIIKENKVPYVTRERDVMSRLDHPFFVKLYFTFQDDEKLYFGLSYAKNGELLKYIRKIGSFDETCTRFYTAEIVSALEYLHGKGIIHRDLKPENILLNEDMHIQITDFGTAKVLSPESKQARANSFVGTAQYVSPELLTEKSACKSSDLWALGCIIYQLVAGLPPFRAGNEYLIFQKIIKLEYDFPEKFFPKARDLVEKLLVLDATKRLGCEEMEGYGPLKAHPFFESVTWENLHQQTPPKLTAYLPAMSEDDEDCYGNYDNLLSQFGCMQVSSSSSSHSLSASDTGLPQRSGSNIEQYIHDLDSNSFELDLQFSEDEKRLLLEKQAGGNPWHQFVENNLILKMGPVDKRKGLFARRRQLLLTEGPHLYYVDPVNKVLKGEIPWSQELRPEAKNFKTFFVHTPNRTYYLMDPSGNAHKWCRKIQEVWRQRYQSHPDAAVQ
Cyclin-dependent kinase 11B (Homo sapiens), sequence (P21127 whole entry): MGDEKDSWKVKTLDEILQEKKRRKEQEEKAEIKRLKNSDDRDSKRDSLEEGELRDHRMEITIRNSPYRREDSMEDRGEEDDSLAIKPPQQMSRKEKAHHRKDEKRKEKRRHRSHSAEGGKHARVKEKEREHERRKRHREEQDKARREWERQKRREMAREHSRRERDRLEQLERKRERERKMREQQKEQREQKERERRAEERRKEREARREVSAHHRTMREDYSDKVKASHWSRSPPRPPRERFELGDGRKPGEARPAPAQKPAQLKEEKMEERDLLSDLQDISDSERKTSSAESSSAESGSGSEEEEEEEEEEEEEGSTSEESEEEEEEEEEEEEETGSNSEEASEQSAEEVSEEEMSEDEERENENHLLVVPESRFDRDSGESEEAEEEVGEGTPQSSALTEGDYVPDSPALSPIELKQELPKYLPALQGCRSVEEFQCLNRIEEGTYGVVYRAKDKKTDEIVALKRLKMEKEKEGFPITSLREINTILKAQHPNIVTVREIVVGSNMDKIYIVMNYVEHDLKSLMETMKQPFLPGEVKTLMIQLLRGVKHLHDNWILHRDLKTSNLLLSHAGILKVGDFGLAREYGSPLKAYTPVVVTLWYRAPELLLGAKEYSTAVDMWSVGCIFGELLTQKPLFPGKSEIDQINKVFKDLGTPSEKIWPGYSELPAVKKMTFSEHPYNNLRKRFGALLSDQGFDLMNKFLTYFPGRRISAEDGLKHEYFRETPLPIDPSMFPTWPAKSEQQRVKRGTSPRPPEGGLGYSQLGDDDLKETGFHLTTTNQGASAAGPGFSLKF
Cyclin-dependent kinase 17 (Homo sapiens), sequence (Q00537 whole entry, looked up): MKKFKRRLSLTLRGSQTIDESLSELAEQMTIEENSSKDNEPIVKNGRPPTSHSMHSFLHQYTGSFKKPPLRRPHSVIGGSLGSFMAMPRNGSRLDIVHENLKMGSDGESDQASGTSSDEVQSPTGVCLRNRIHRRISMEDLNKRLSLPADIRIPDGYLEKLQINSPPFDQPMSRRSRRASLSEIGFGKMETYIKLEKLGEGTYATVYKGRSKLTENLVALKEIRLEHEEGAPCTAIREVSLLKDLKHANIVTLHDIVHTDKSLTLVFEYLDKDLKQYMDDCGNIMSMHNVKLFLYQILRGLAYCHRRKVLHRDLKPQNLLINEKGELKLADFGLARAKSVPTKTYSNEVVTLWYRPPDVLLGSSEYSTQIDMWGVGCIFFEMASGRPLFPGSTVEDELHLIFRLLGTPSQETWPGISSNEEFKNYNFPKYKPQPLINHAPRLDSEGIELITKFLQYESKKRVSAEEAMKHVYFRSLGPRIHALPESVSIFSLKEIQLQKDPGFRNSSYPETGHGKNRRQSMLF
Mitogen-activated protein kinase kinase kinase kinase 1 (Homo sapiens), sequence (Q92918 whole entry, looked up): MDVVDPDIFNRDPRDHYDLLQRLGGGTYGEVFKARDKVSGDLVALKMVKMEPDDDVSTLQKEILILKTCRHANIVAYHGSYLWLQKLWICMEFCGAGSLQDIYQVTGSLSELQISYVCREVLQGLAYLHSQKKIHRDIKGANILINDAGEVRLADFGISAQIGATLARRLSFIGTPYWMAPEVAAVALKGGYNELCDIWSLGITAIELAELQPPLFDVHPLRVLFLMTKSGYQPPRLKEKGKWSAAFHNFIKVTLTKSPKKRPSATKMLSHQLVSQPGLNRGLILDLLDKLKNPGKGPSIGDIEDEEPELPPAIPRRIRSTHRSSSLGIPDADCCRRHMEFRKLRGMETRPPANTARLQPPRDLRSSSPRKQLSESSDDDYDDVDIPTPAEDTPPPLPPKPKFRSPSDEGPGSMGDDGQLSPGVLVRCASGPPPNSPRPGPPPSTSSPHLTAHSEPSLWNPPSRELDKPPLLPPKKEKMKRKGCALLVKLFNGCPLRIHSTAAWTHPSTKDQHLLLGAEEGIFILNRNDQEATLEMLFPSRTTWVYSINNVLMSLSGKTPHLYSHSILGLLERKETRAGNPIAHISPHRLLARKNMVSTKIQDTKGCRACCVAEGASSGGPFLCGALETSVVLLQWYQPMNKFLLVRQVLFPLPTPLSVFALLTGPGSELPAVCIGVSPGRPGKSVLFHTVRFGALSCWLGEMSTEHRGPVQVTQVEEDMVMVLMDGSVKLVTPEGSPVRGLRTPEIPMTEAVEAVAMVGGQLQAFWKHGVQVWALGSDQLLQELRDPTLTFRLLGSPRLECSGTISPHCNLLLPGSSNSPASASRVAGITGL
Dual specificity testis-specific protein kinase 1 (Homo sapiens), sequence (Q15569 whole entry, looked up): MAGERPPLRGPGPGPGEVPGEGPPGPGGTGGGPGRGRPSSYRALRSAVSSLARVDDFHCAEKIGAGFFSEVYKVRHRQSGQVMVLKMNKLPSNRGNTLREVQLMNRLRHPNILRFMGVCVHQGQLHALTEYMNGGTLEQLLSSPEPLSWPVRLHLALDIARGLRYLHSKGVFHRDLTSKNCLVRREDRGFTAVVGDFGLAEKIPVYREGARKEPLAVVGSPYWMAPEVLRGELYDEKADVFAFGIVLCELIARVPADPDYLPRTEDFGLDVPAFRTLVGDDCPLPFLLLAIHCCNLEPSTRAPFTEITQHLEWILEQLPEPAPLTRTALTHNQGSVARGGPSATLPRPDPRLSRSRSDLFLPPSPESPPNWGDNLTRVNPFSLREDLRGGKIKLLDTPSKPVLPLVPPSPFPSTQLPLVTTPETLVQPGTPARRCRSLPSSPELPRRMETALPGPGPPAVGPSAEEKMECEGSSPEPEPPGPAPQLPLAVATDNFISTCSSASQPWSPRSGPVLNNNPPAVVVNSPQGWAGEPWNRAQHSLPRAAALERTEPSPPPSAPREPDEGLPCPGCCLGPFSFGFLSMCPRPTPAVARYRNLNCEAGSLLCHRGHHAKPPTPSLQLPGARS

In the case of `Nc1ccccc1Nc1ccc2c(c1)CCc1ccccc1C2=O`, the Activity in [1] was found to be 90%; in [2], 94%; in test [3], 90%; in test [4] it was 96%; in test [5] it was 93%; in [6] it was 86%. Further, the Activity in test [7], in [8] and in test [9] was 90% in each case.

As for `O=C1c2ccc(Nc3ccc(F)cc3F)cc2CCc2ccc(OC[C@H](O)CO)cc21` [Skepinone-L], the Activity in test [1] turned out to be 100%; in test [2], 99%; in [3] it was 100%; in [4] it was 85%; in [5] it was 89%; in [6], 100%. Moreover, the Activity in test [7] was 91%; in test [8], 100%; in [9], 97%.
